Test results reported in patent US20250195530A1, “POLQ INHIBITORS” (ASTRAZENECA AB, priority 2022, published 2025).
Where two headings read alike, the source gives them in different places.

What was measured:
DLD-1 BRCA2−/− cells = assay: Homologous recombination synthetic lethal inhibition of proliferation, DLD-1 BRCA2-/- (Cell Titre Glo 3D); format: cell-based; conditions: Homo sapiens
In short: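 Wild-type DLD-1 serves as the control for non-specific toxicity, and BRCA2-null DLD-1 as the homologous-recombination-deficient line. Both grew with compound from 10 μM down to 0.51 nM, re-dosed after 6 days. Luminescent ATP content (CellTiter-Glo 3D) was read after 7 or 12 days, respectively, to give IC50 values.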

DLD-1 cells = assay: Inhibition of proliferation, DLD-1 BRCA2 wt control (Cell Titre Glo 3D); format: cell-based; conditions: Homo sapiens
From the text: This assay identifies anti-proliferative effects of POLQ compounds in the homologous recombination deficient colorectal cell line DLD-1 BRCA2−/− over 8-9 population doublings (7 days for DLD-1 and 12 days for DLD-1 BRCA2−/−). DLD1 BRCA2 wt are used as a control to detect cell toxic effects not specific to homologous recombination deficiency.
DLD-1 BRCA2−/− and DLD-1 cells were kept in continuous culture in Assay Medium (RPMI 1640 phenol red free (Sigma R7509) containing 1% GlutaMAX (Gibco 35050) and 10% Foetal Bovine Serum (Gibco 10270-106)). On the day of the assay cells in culture of ˜80-90% confluent were used. Cell monolayers were washed with 10 mL PBS, then removed and added 2 mL TrypLE Express (Gibco 12604). The cells with TrypLE Express were incubated for 5 minutes in cell culture incubator and then the detached cells resuspend in 15 mL Assay Medium. Cells were counted using a ViCell and the cell images were monitored for clumps of cells, ideally they should be single or <3 cell clusters. The cells were diluted to 3,000 cells/mL of DLD-1 BRCA2−/− and 1,500 cells/mL of DLD-1 in Assay Medium and 100 μL added per well of transparent bottomed, black, tissue culture-treated 96-well plates (CoStar, No. 3904) Assay Ready Plates. The Assay Ready Plates contain a 10 point 10 μM to 0.51 nM dose range with three-fold dilutions in DMSO with a final volume of 100 nL. The plates were incubated at 37° C. with 5% C02 for 6 days. On day 6, 100 μL/well of Assay Medium was added to duplicate Assay Ready Plates. 90 μL of culture medium was removed from the cell plates and replenished with the Assay Media and compounds from the duplicate Assay Ready Plates using the Bravo. The plates were further incubated at 37° C. with 5% CO2. On day 7 the plates containing DLD-1 and Cell Titre Glo 3D (Promega G9683) were equilibrated to room temperature, then 60 μL of Cell Titre Glo 3D was added per well and incubated on a shaking platform for 30 min. Plates were read on the Envision measuring luminescence for 1 second per well. On day 12 the plates containing DLD-1 BRCA2−/− cells and Cell Titre Glo 3D (Promega G9683) were equilibrated to room temperature, then 60 μL Cell Titre Glo 3D added per well and incubated on a shaking platform for 30 min. Plates were read on the Envision measuring luminescence for 1 second per well. The data was exported into a suitable software package (such as Genedata) to perform curve fitting analysis. Inhibition of cell proliferation was expressed as an IC5o value and was determined by calculation of the concentration of compound that was required to give a 50% reduction of the average maximum Total Intensity signal.

[1] = DLD-1, DLD-1 BRCA2-/- proliferation, column head only partly shown, read-out: POLQ PD Prolif Lumin (converted)
[2] = DLD-1, DLD-1 BRCA2 wt control proliferation, column head only partly shown, read-out: POLQ PD Prolif Lumin (converted)
[3] = DLD-1, proliferation, luminescence, taken as DLD-1 BRCA2-/-, read-out: POLQ PD Prolif Lumin (converted)
[4] = DLD-1, proliferation, luminescence, second Prolif column (c6), taken as DLD-1 BRCA2 wt control, read-out: POLQ PD Prolif Lumin (converted)
[5] = DLD-1, first proliferation column (c5), DLD-1 BRCA2-/-, read-out: POLQ PD Prolif Lumin (converted)
[6] = DLD-1, second proliferation column (c6), DLD-1 BRCA2 wt control, read-out: POLQ PD Prolif Lumin (converted)
[7] = DLD-1, DLD-1 BRCA2 −/−, mean, read-out: POLQ PD Prolif Lumin BRCA2 −/− mean pIC50 (converted)
[8] = DLD-1, DLD1 BRCA2 wt, mean, read-out: POLQ PD Prolif Lumin DLD1 mean pIC50 (converted)

CC(CCOc1ccc(-c2nc3c(OC4(C)CC4)ncnc3n2Cc2cccc(Br)c2)c(Cl)c1)C(=O)O (racemic) [Example T279, 4-(4-(9-(3-bromobenzyl)-6-(1-methylcyclopropoxy)-9H-purin-8-yl)-3-chlorophenoxy)-2-methylbutanoic acid]
IC50 (DLD-1 BRCA2−/− cells; [1]): 200 nM | IC50 (DLD-1 cells; [2]): > 10000 nM

CC(CCOc1ccc(-c2nc3c(OC4(C)CC4)ncnc3n2Cc2cccc(I)c2)c(Cl)c1)C(=O)O (racemic) [Example T285, 4-(3-chloro-4-(9-(3-iodobenzyl)-6-(1-methylcyclopropoxy)-9H-purin-8-yl)phenoxy)-2-methylbutanoic acid]
IC50 (DLD-1 BRCA2−/− cells; [1]): 251 nM | IC50 (DLD-1 cells; [2]): > 10000 nM

CC(CCOc1cccc(-c2nc3c(OC4(C)CC4)ncnc3n2Cc2cccc(Cl)c2)c1Cl)C(=O)O (racemic) [Example T293, 4-(2-chloro-3-(9-(3-chlorobenzyl)-6-(1-methylcyclopropoxy)-9H-purin-8-yl)phenoxy)-2-methylbutanoic acid]
IC50 (DLD-1 BRCA2−/− cells; [1]): 31.6 nM | IC50 (DLD-1 cells; [2]): > 3160 nM

CC(OCCOc1ccc(-c2nc3c(OC4(C)CC4)ncnc3n2Cc2cccc(Cl)c2)c(Cl)c1)C(=O)O (racemic) [Example T305, rac-(R)-2-(2-(3-chloro-4-(9-(3-chlorobenzyl)-6-(1-methylcyclopropoxy)-9H-purin-8-yl)phenoxy)ethoxy)propanoic acid]
IC50 (DLD-1 BRCA2−/− cells; DLD-1, first proliferation column (c5), taken as DLD-1 BRCA2-/-, read-out: POLQ PD Prolif Lumin (converted)): 794 nM | IC50 (DLD-1 cells; DLD-1, second proliferation column (c6), taken as DLD-1 BRCA2 wt, read-out: POLQ PD Prolif Lumin (converted)): > 10000 nM

CC(CCOc1ccc(-c2nc3c(OC4(C)CC4)ncnc3n2Cc2cc(C(F)(F)F)ccc2F)c(Cl)c1)C(=O)O (racemic) [Example T395, 4-(3-chloro-4-(9-(2-fluoro-5-(trifluoromethyl)benzyl)-6-(1-methylcyclopropoxy)-9H-purin-8-yl)phenoxy)-2-methylbutanoic acid]
IC50 (DLD-1 BRCA2−/− cells; [3]): 100 nM | IC50 (DLD-1 cells; [4]): > 10000 nM

CC(CCOc1ccc(-c2nc3c(OC4(C)CC4)ncnc3n2Cc2cccc(C#N)c2)c(Cl)c1)C(=O)O (racemic) [Example T399, 4-(3-chloro-4-(9-(3-cyanobenzyl)-6-(1-methylcyclopropoxy)-9H-purin-8-yl)phenoxy)-2-methylbutanoic acid]
IC50 (DLD-1 BRCA2−/− cells; [3]): 316 nM | IC50 (DLD-1 cells; [4]): > 10000 nM

CC(CCOc1ccc(-c2nc3c(OC4(C)CC4)ncnc3n2Cc2ccccc2C#N)c(Cl)c1)C(=O)O (racemic) [Example T400, 4-(3-chloro-4-(9-(2-cyanobenzyl)-6-(1-methylcyclopropoxy)-9H-purin-8-yl)phenoxy)-2-methylbutanoic acid]
IC50 (DLD-1 BRCA2−/− cells; [3]): 251 nM | IC50 (DLD-1 cells; [4]): > 10000 nM

Cc1ccc(F)c(Cn2c(-c3ccc(OCCC(C)C(=O)O)cc3Cl)nc3c(OC4(C)CC4)ncnc32)c1 (racemic) [Example T417, 4-(3-chloro-4-(9-(2-fluoro-5-methylbenzyl)-6-(1-methylcyclopropoxy)-9H-purin-8-yl)phenoxy)-2-methylbutanoic acid]
IC50 (DLD-1 BRCA2−/− cells; [3]): 50.1 nM | IC50 (DLD-1 cells; [4]): > 10000 nM

CC(CCOc1ccc(-c2nc3c(OC4(C)CC4)ncnc3n2Cc2cc(C(F)(F)F)cc(C(F)(F)F)c2)c(Cl)c1)C(=O)O (racemic) [Example T533, 4-(4-(9-(3,5-bis(trifluoromethyl)benzyl)-6-(1-methylcyclopropoxy)-9H-purin-8-yl)-3-chlorophenoxy)-2-methylbutanoic acid]
IC50 (DLD-1 BRCA2−/− cells; [5]): 398 nM | IC50 (DLD-1 cells; [6]): > 3160 nM

CC(CCOc1ccc(-c2nc3c(OC4(C)CC4)ncnc3n2Cc2cccc(C(C)(F)F)c2)c(Cl)c1)C(=O)O (racemic) [Example T544, 4-(3-chloro-4-(9-(3-(1,1-difluoroethyl)benzyl)-6-(1-methylcyclopropoxy)-9H-purin-8-yl)phenoxy)-2-methylbutanoic acid]
IC50 (DLD-1 BRCA2−/− cells; [5]): 501 nM | IC50 (DLD-1 cells; [6]): > 10000 nM

CC(C)C(CCOc1ccc(-c2nc3c(OC4(C)CC4)ncnc3n2Cc2cccc(Cl)c2)c(Cl)c1)C(=O)O (racemic) [Example T566, 4-(3-chloro-4-(9-(3-chlorobenzyl)-6-(1-methylcyclopropoxy)-9H-purin-8-yl)phenoxy)-2-isopropylbutanoic acid]
IC50 (DLD-1 BRCA2−/− cells; [5]): 158 nM | IC50 (DLD-1 cells; [6]): > 10000 nM

Cc1cccc(C)c1Cn1c(-c2ccc(OCCC(C)C(=O)O)cc2Cl)nc2c(OC3(C)CC3)ncnc21 (racemic) [Example T571, 4-(3-chloro-4-(9-(2,6-dimethylbenzyl)-6-(1-methylcyclopropoxy)-9H-purin-8-yl)phenoxy)-2-methylbutanoic acid]
IC50 (DLD-1 BRCA2−/− cells; [5]): 1260 nM | IC50 (DLD-1 cells; [6]): > 10000 nM

CC(CCOc1ccc(-c2nc3c(OC4(C)CC4)ncnc3n2Cc2ccccc2C2CC2)c(Cl)c1)C(=O)O (racemic) [Example T598, 4-(3-chloro-4-(9-(2-cyclopropylbenzyl)-6-(1-methylcyclopropoxy)-9H-purin-8-yl)phenoxy)-2-methylbutanoic acid]
IC50 (DLD-1 BRCA2−/− cells; DLD-1, first proliferation column, DLD-1 BRCA2-/-, read-out: POLQ PD Prolif Lumin (converted)): 631 nM | IC50 (DLD-1 cells; DLD-1, second proliferation column, DLD-1 BRCA2 wt control, read-out: POLQ PD Prolif Lumin (converted)): > 10000 nM

COc1ccc(C)cc1Cn1c(-c2ccc(OCCC(C)C(=O)O)cc2Cl)nc2c(OC3(C)CC3)ncnc21 (racemic) [Example U1, 4-(3-chloro-4-(9-(2-methoxy-5-methylbenzyl)-6-(1-methylcyclopropoxy)-9H-purin-8-yl)phenoxy)-2-methylbutanoic acid]
IC50 (DLD-1 BRCA2−/− cells; [7]): 50.1 nM | IC50 (DLD-1 cells; [8]): > 10000 nM

COc1ccc(F)cc1Cn1c(-c2ccc(OCCC(C)C(=O)O)cc2Cl)nc2c(OC3(C)CC3)ncnc21 (racemic) [Example U2, 4-(3-chloro-4-(9-(5-fluoro-2-methoxybenzyl)-6-(1-methylcyclopropoxy)-9H-purin-8-yl)phenoxy)-2-methylbutanoic acid]
IC50 (DLD-1 BRCA2−/− cells; [7]): 63.1 nM | IC50 (DLD-1 cells; [8]): > 10000 nM

CC(CCOc1ccc(-c2nc3c(OC4(C)CC4)ncnc3n2Cc2cc(Cl)ccc2C#N)c(Cl)c1)C(=O)O (racemic) [Example U9, 4-(3-chloro-4-(9-(5-chloro-2-cyanobenzyl)-6-(1-methylcyclopropoxy)-9H-purin-8-yl)phenoxy)-2-methylbutanoic acid]
IC50 (DLD-1 BRCA2−/− cells; [7]): 79.4 nM | IC50 (DLD-1 cells; [8]): > 10000 nM

CC(CCOc1ccc(-c2nc3c(OC4(C)CC4)ncnc3n2Cc2c(F)cccc2C#N)c(Cl)c1)C(=O)O (racemic) [Example U13, 4-(3-chloro-4-(9-(2-cyano-6-fluorobenzyl)-6-(1-methylcyclopropoxy)-9H-purin-8-yl)phenoxy)-2-methylbutanoic acid]
IC50 (DLD-1 BRCA2−/− cells; [7]): 3160 nM | IC50 (DLD-1 cells; [8]): > 10000 nM

COc1ccc(C#N)cc1Cn1c(-c2ccc(OCCC(C)C(=O)O)cc2Cl)nc2c(OC3(C)CC3)ncnc21 (racemic) [Example U14, 4-(3-chloro-4-(9-(5-cyano-2-methoxybenzyl)-6-(1-methylcyclopropoxy)-9H-purin-8-yl)phenoxy)-2-methylbutanoic acid]
IC50 (DLD-1 BRCA2−/− cells; [7]): 398 nM | IC50 (DLD-1 cells; [8]): > 10000 nM

COc1ccc(Cl)cc1Cn1c(-c2ccc(OCC(C)CC(=O)O)cc2Cl)nc2c(OC3(C)CC3)ncnc21 (racemic) [Example U42, 4-(3-chloro-4-(9-(5-chloro-2-methoxybenzyl)-6-(1-methylcyclopropoxy)-9H-purin-8-yl)phenoxy)-3-methylbutanoic acid]
IC50 (DLD-1 BRCA2−/− cells; [7]): 39.8 nM | IC50 (DLD-1 cells; [8]): > 10000 nM
